US20080138834A1, “Cellular antagonists of GPCR physiology” (Institute Pasteur Korea, priority 2006, published 2008)
Entries after “also recorded” stand apart in the source; their conditions may differ. Read-outs that look alike come from different tables or passages of the source.

Assays:
[1] = tested on: HeLa cells; experiment: Housekeeping endocytosis assay (BODIPY-FL dextran internalization); assay type: cell-based
[2] = tested on: rat thoracic aorta; experiment: Ex-vivo rat thoracic aorta constriction-relaxation model; conditions: 10 μM compound 30 min, then 40 nM endothelin; normalized to noradrenalin contraction
Experimental: As previously described, male rats (Sprague-Dawley) weighing 300 to 400 g were anesthetized with sodium pentobarbital (50 mg/kg i.p.), and thoracic aorta was removed, cleaned of fat and connective tissue placed in Krebs bicarbonate solution (118 mM NaCl; 4.7 mM KCl; 25 mM NaHCO3; 2.5 mM CaCl2; 1.2 mM KH2PO4; 1.2 mM MgSO4; 11 mM glucose) bubbled with 95% O2 and 5% CO2^39,40. The whole aorta was cut along a close spiral to produce a strip of 5 to 6 cm long. The strip was mounted on a Grass force displacement transducer at a tension of 2 grams and placed in a 25 ml chamber maintained at 34° C. Following mounting of aorta strip on transducer, noradrenalin was added to a final concentration of 5 μM and increase of tension-constriction was recorded for 20 min. Subsequently, the noradrenalin was washed with 16 chamber volumes (400 ml) until tension returned to 2 grams. […] Tension was recorded throughout the experiment. […]
To correlate the effect of kinase inhibitors that perturb ETAR intracellular pathway and cAMP production to a physiological relevance we have examined compound effect(s) on the ex-vivo rat thoracic aorta constriction-relaxation model (^39, 40). […] Contractile responses were assessed after aortal strips were treated with 10 μM Gö6976, 10 μM Erbstatin A or 10 μM H-89 for 30 minutes followed by treatment with Endothelin. […]

[3] = tested on: ETAR: GFP expressing cells; experiment: Single cell visual screening: red fluorescent dextran internalization in ETAR:GFP expressing cells; assay type: cell-based; conditions: 10 μM compound, 10 min red fluorescent dextran
Experimental: Single cell differential screening. […] (b) 10 μM Erbstatin A. (c) 10 μM H-89 (d) DMSO (e) 40 nM endothelin-1 alone. Confocal images are from a 1 μm Z section. […] Scale bar 5 μm.
The effect of the 3 kinase inhibitors affecting ETAR on receptor activation and housekeeping endocytosis were simultaneously imaged in ETAR: GFP expressing cells by internalization of red fluorescent dextran (FIG. 3). […] Thus, inhibition of protein kinase A and C second messenger activated kinases potently altered ETAR GPCR internalization but left housekeeping endocytosis unaffected.

[4] = tested on: cAMP; experiment: cAMP production after ET-1 stimulation, indirect ELISA; assay type: cell-based; conditions: for effect on intra-cellular cAMP after ET-1 stimulation: 10 μM compound, 40 nM ET-1
Experimental: cAMP production requires sequential G-protein activation.
All fine chemicals were purchased from Sigma-Aldrich. Fluorophores and their reactive forms were purchased from Molecular Probes (Eugene, USA). DRAQ5 was from BioStatus (Shepshed, UK). 40 kDa BODIPY-F1-dextran was synthesized from amino dextran using standard protocols. […] Kinase and phosphatase inhibitors were purchased as 95-99% pure 10 mM stock solutions in dimethylsulfoxide or water (Biomol Hamburg, Germany). Stock solutions and formatted assay plates were stored at −20° C. cAMP was measured by indirect ELISA (R & D systems, MN USA) following the manufacturers protocol for cAMP acetylation, and a cAMP standard.
GPCRs can couple to multiple G-proteins and switching between G-proteins is generally mediated by protein phosphorylation^36-38. We assessed the importance of Gq coupling and PKC activity in the generation of intra-cellular cAMP through Gs following agonist stimulation.

[5] = tested on: M1 muscarinic acetylcholine receptor (M1AR); experiment: Agonist-induced M1AR endocytosis in polarized MDCK cells; assay type: cell-based; conditions: 10 μM compound, vs untreated agonist stimulated control
Experimental: Sensitivity of GPCR internalization to kinase inhibitors acting on ETAR endocytosis. (a) Fully polarized MDCK cells expressing the M1AR were treated with 100 nM carbachol, DMSO, or compounds then fixed and stained with antibodies against the M1AR epitope tag (green) or the GP130 apical plasma marker (red). Cells were pretreated with compounds: 10 μM RO 31 8220, 10 μM Erbstatin A, 10 μM H-89, with 100 nM agonist, agonist alone or DMSO. Scale bar: 20 μm. (b) HEK293T cells expressing a human kappa Opioid receptor fusion to the green fluorescent protein were treated with 10 μM Gö 6976, 10 μM Erbstatin A, 10 μM H-89, 10 μM KT-5720 with 300 nM agonist, agonist alone or DMSO. Scale bar 20 μm. (c) Quantification of kappa Opioid receptor internalization (endosomes/cell) after compound treatment and agonist treatment.
If the involvement of second messenger kinases in agonist induced endocytosis of the ETAR was a generic feature of Gq coupled receptor activation, it may be expected that the kinase inhibitors affecting ETAR endocytosis may have effects on related receptors or related receptors in other cell lines. The kinase inhibitors that disrupted agonist induced ETAR endocytosis were assayed on agonist-induced endocytosis of the Gq/11 coupled M1 muscarinic acetylcholine receptor (M1AR). […]

[6] = tested on: human kappa Opioid receptor; assay type: cell-based
[7] = 10 μM compound, fluorescent dextran uptake

CC(C)(C)c1cc(/C=C(\C#N)C(N)=S)cc(C(C)(C)C)c1O [AG-879]
effect on housekeeping endocytosis (integrated intensity per cell) ([1]; 10 μM compound, data not shown): reduced
effect on housekeeping endocytosis (number of endosomes) [1, 7]: reduced the number of endosomes

CN(C)CCCn1cc(C2=C(c3c[nH]c4ccccc34)C(=O)NC2=O)c2ccccc21 [GF 109203X]
effect on housekeeping endocytosis (integrated intensity per cell) [1]: reduced
effect on housekeeping endocytosis (number of endosomes) [1]: reduced the number of endosomes; also recorded: blocked

Cn1c2ccccc2c2c3c(c4c5ccccc5n(CCC#N)c4c21)CNC3=O [Gö 6976]
endothelin dependent aortal strip contraction vs endothelin alone [2]: increased contraction

CC1CNCCN1S(=O)(=O)c1cccc2cnccc12 (stereo not shown) [H7]
effect on housekeeping endocytosis (number of endosomes) [1, 7]: no significant effect

O=S(=O)(NCCNC/C=C/c1ccc(Br)cc1)c1cccc2cnccc12 [H-89]
effect on housekeeping endocytosis (number of endosomes) [1, 7]: None of these compounds had a measurable effect
housekeeping endocytosis, single cell imaging [3]: unaltered
effect on intra-cellular cAMP after ET-1 stimulation [4]: markedly increased cAMP
increase of cellular cAMP ([4]; PKA inhibition with H-89, endothelin stimulated): two-fold
agonist-induced M1AR endocytosis [5]: unaffected
endothelin dependent aortal strip contraction vs endothelin alone [2]: significantly lower constriction
effect on kOPr internalization [6]: moderate

CCCCCCOC(=O)[C@]1(O)C[C@@H]2O[C@@]1(C)n1c3ccccc3c3c4c(c5c6ccccc6n2c5c31)C(=O)NC4 [KT5720]
effect on kOPr internalization [6]: pronounced stimulation of receptor uptake

CCCCCCCCCCCCCCCC(=O)OC(CC(=O)O)C[N+](C)(C)C.[Cl-] (stereo not drawn) [Palmitoyl DL carnitine chloride]
effect on housekeeping endocytosis (number of endosomes) [1, 7]: no significant effect

Cn1cc(C2=C(c3cn(CCCSC(=N)N)c4ccccc34)C(=O)NC2=O)c2ccccc21 [Ro 31-8220]
effect on housekeeping endocytosis (number of endosomes) [1, 7]: None of these compounds had a measurable effect
effect on housekeeping endocytosis (number of endosomes) ([1]; 10 μM compound, fluorescent dextran uptake, listed as Ro 31 8220): no significant effect
housekeeping endocytosis, single cell imaging [3]: unaffected
effect on intra-cellular cAMP after ET-1 stimulation [4]: blocked cAMP production
agonist-induced M1AR endocytosis [5]: unaffected

CC[C@H](C)[C@H](NC(=O)[C@H](CC(=O)O)NC(=O)[C@H](CC(C)C)NC(=O)[C@H](Cc1c[nH]cn1)NC(=O)[C@@H]1CSSC[C@H](N)C(=O)N[C@@H](CO)C(=O)N[C@H]2CSSC[C@H](NC(=O)[C@H](CCC(=O)O)NC(=O)[C@H](CCCCN)NC(=O)[C@H](CC(=O)O)NC(=O)[C@H](CCSC)NC(=O)[C@H](CC(C)C)NC(=O)[C@H](CO)NC(=O)[C@H](CO)NC2=O)C(=O)N[C@@H](C(C)C)C(=O)N[C@@H](Cc2ccc(O)cc2)C(=O)N[C@@H](Cc2ccccc2)C(=O)N1)C(=O)N[C@H](C(=O)N[C@@H](Cc1c[nH]c2ccccc12)C(=O)O)[C@@H](C)CC [endothelin-1]
intra-cellular cAMP after stimulation with ET-1 alone ([4]; 40 nM ET-1, after 10 min): robust increase in intra-cellular cAMP
time of peak in cAMP production following stimulation ([4]; endothelin stimulation): 20 min

Cc1cc(O)c2c(=O)c3c(O)cc(O)c4c5c(O)cc(O)c6c(=O)c7c(O)cc(C)c8c1c2c(c34)c(c78)c65 [hypericine]
housekeeping endocytosis compared to control [1]: 0.2 fold

CC(=O)c1c(O)c(C)c(O)c(Cc2c(O)c3c(c(C(=O)/C=C/c4ccccc4)c2O)OC(C)(C)C=C3)c1O [rottlerin]
effect on housekeeping endocytosis (number of endosomes) [1]: no effect

CN[C@@H]1C[C@H]2O[C@@](C)([C@@H]1OC)n1c3ccccc3c3c4c(c5c6ccccc6n2c5c31)C(=O)NC4 [staurosporine]
effect on housekeeping endocytosis (integrated intensity per cell) ([1]; 10 μM compound, data not shown): reduced
effect on housekeeping endocytosis (number of endosomes) [1, 7]: reduced the number of endosomes; also recorded: inhibited

CC(C)(C)c1cc(C=C(C#N)C#N)cc(C(C)(C)C)c1O [tyrphostin 9]
effect on housekeeping endocytosis (integrated intensity per cell) ([1]; 10 μM compound, data not shown): reduced
effect on housekeeping endocytosis (number of endosomes) [1, 7]: reduced the number of endosomes
